From article PMC11714206, “Massively Parallel Screening of Toll/Interleukin‐1 Receptor (TIR)‐Derived Peptides Reveals Multiple Toll‐Like Receptors (TLRs)‐Targeting Immunomodulatory Peptides” (Advanced Science, 2024)
Blank lines part the entries; values can stand above or below the sequence they belong to.

Target: T1, MyD88^TIR (Homo sapiens, UniProt Q99836)
T1 construct: MyD88 (residues 148–296); 6xHis; made in house; host or cells: E. coli BL21 (DE3)
Assay: T‐Surf phage library (P8 and P3) selection against MyD88^TIR, four rounds, NGS read counts
Format: binding
Conditions: for P3_MyD88 Rank (after) / P3_MyD88 Rank (before): P3 library; for P8_MyD88 Rank (after) / P8_MyD88 Rank (before): P8 library; for Population: 4th round of selection against MyD88 TIR, share of NGS reads
Experimental: T‐Surf libraries were screened against the immobilized TIR domains of two major human TLR adaptor proteins, MAL^TIR and MyD88^TIR, allowing cross‐species selection of TIR‐binding motifs with 190 946 TIR‐derived peptides in a single binding assay (Scheme 1). Enriched phage pools from the fourth round of selection were analyzed using NGS after barcoding the peptide‐coding regions of the phage pools.
Phage display screening was performed by coating two wells of a 96‐well plate (Maxisorp, Thermo Fisher Scientific) with 100 µL of 5 µg mL^−1 TIR domains overnight; then, the coated wells were blocked with 200 µL of blocking buffer (0.2% BSA in PBS) and set aside for 1 h at 4 °C with gentle shaking. Next, 100 µL of the phage library was added to the wells and incubated for 1 h at room temperature (RT; 20 – 22 °C) with gentle shaking. The plate was washed four times with PBS containing 0.5% Tween‐20; the bound phages were eluted by adding 100 µL of 100 mM HCl to each well. The elute was neutralized with 10 µL of 1.0 M Tris‐HCl (pH 11.0). E. coli TG1 cells were grown to the log phase (A600 = ≈0.6), and 1 mL of the culture was incubated with 100 µL of the eluted phages for 30 min at 37 °C, with shaking at 200 rpm. Next, 1 µL of M13KO7 helper phages was added, followed by incubation for 45 min at 37 °C, with shaking. Subsequently, the cells were transferred to 25 mL of 2× yeast extract tryptone/carbenicillin/kanamycin medium and incubated overnight at 37 °C with shaking at 200 rpm. The amplified phages were precipitated with 20% PEG‐8000/2.5 M NaCl to be used for the next round of selection.
The naïve T‐Surf libraries in P8 and P3 and the enriched phage pools after four rounds were barcoded for NGS as previously described.^[ [59] ^] Briefly, 5 µL of the phage pool was used as a template for 20 cycles of a 50 µL PCR reaction using […] each of forward and reverse barcoded primers and PrimeSTAR Max DNA Polymerase. The PCR products were purified using Expin Gel SV (GeneAll). The NGS samples were quantified using qPCR, following the qPCR Quantification Protocol Guide (KAPA Library Quantification kits for Illumina Sequencing Platform), and qualified using the TapeStation High Sensitivity D1000 ScreenTape (Agilent Technologies). The indexed libraries were further sequenced by Macrogen (Seoul, Republic of Korea) using the NovaSeq platform (Illumina) with 100 bp paired‐end reads. The reads were demultiplexed by barcodes and filtered for an average Phred quality score of at least 30, followed by trimming the flanking consensus sequences using Cutadapt (version 2.3). Peptide sequence populations were analyzed according to the read counts.

[1] = P8_MyD88: rank by NGS read count after grouping
[2] = P8_MyD88: rank by NGS read count before grouping
[3] = selection against MyD88, rank after grouping
[4] = selection against MyD88, rank before grouping
[5] = selection against MyD88 TIR, rank by count after grouping
[6] = selection against MyD88 TIR, rank by count before grouping
[7] = selection against MyD88, rank by count after grouping
[8] = selection against MyD88, rank by count before grouping
[9] = P3_MyD88: rank by count after grouping
[10] = P3_MyD88: rank by count before grouping
[11] = 4R selection against MyD88, rank after grouping
[12] = 4R selection against MyD88, rank before grouping
[13] = P8_MyD88: rank by count after grouping
[14] = P8_MyD88: rank by count before grouping
[15] = P8_MyD88 pool: P8 T-Surf phage library
[16] = P3_MyD88 pool: P3 T-Surf phage library

T1 sequence (Q99836 148-296): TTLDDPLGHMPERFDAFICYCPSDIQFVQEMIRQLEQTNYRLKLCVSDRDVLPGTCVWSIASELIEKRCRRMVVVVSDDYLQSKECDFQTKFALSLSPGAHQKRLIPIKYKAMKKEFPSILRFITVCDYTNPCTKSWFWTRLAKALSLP

Sequence: DPQDLEWNFERPVSLF
Rank (after) [1]: 972
Rank (before) [2]: 2856

Sequence: DHHLDLPRGKANKPEILD
P3_MyD88 Rank (after) [3]: 555
P3_MyD88 Rank (before) [4]: 2035

Sequence: YTALNHSGFHTFRDND
P3_MyD88 Rank (after) [5]: 253
P3_MyD88 Rank (before) [6]: 1702

Sequence: DHHLDLPRGKAIKPEILG
P8_MyD88 Rank (after) [7]: 757
P8_MyD88 Rank (before) [8]: 3049

Sequence: IDDDHLTYLVRLLQIA
P8_MyD88 Rank (after) [7]: 761
P8_MyD88 Rank (before) [8]: 3637

Sequence: SSFLQHPWRLQKLSKK
Rank (after) [9]: 399
Rank (before) [10]: 3123

Sequence: SREYASCSWALTELVH
P3_MyD88 Rank (after) [11]: 647
P3_MyD88 Rank (before) [12]: 3106

Sequence: NDLVHGWSSKANSLVG
Rank (after) [9]: 136
Rank (before) [10]: 3388

Sequence: DPQLLVCFYERVVRMF
Rank (after) [1]: 1010
Rank (before) [2]: 3025

Sequence: SSFRKGVWRVRKLSKK
P3_MyD88 Rank (after) [7]: 717
P3_MyD88 Rank (before) [8]: 3230

Sequence: DPQDLDWFYERREPA
P8_MyD88 Rank (after) [11]: 662
P8_MyD88 Rank (before) [12]: 2790

Sequence: DPQDLQCSSERLVSLI
P8_MyD88 Rank (after) [7]: 691
P8_MyD88 Rank (before) [8]: 2906

Sequence: DWVWVYLLPNLEGPEG
P8_MyD88 Rank (after) [11]: 641
P8_MyD88 Rank (before) [12]: 2402

Sequence: PQDLDWFYERLESLF
Rank (after) [1]: 1019
Rank (before) [2]: 3427

Sequence: IVQALWSKVHHSLTLF
Rank (after) [13]: 145
Rank (before) [14]: 157
Population [15]: 0.01%

Sequence: GRYEELFMTETDERLP
P3_MyD88 Rank (after) [7]: 735
P3_MyD88 Rank (before) [8]: 1853

Sequence: YLRADELLKILYANETM
Rank (after) [1]: 870
Rank (before) [2]: 2072

Sequence: HFETTEGNFYKFFLFF
Rank (after) [13]: 165
Rank (before) [14]: 187
Population [15]: 0.00694%

Sequence: SSLREGLWRLQELSKK
Rank (after) [9]: 135
Rank (before) [10]: 3273

Sequence: DPQDTDWFYERLVSMF
P8_MyD88 Rank (after) [3]: 499
P8_MyD88 Rank (before) [4]: 2976

Sequence: DPQDLDCYYERLVSLF
Rank (after) [1]: 1004
Rank (before) [2]: 2741

Sequence: LVYHWIDWEYFVGIED
Population [15]: 0.0108%

Sequence: EYRNESKSVWDIINAI
P8_MyD88 Rank (after) [11]: 642
P8_MyD88 Rank (before) [12]: 3172

Sequence: NQWPNALTAAANLRGW
Rank (after) [9]: 132
Rank (before) [10]: 3534

Sequence: NELVHVCFSNENSQVG
P3_MyD88 Rank (after) [5]: 275
P3_MyD88 Rank (before) [6]: 3406

Sequence: WKEALTYVSLLVGFPF
P8_MyD88 Rank (after) [5]: 224
P8_MyD88 Rank (before) [6]: 380

Sequence: GFREGLWRLLELSKK
P3_MyD88 Rank (after) [11]: 669
P3_MyD88 Rank (before) [12]: 1819

Sequence: DPQDLQWFYERLVSLMASGI
P8_MyD88 Rank (after) [3]: 494
P8_MyD88 Rank (before) [4]: 2920

Sequence: QGDPSYRLTLHYRDVN
P3_MyD88 Rank (after) [11]: 591
P3_MyD88 Rank (before) [12]: 2866

Sequence: DPQDLECVYERLVSLF
Rank (after) [1]: 1006
Rank (before) [2]: 2846

Sequence: DWVYNELIAHLENTEH
P8_MyD88 Rank (after) [5]: 204
P8_MyD88 Rank (before) [6]: 306

Sequence: WIWEKLKYALPHRYEP
P3_MyD88 Rank (after) [11]: 640
P3_MyD88 Rank (before) [12]: 1424

Sequence: DWVWDYLLPDLLGPAG
P8_MyD88 Rank (after) [7]: 700
P8_MyD88 Rank (before) [8]: 2416

Sequence: DPQALAWFYERLVSLF
P8_MyD88 Rank (after) [5]: 256
P8_MyD88 Rank (before) [6]: 2682

Sequence: YAFTGHLHRYLVQPGESVC
Rank (after) [9]: 456
Rank (before) [10]: 1515

Sequence: YASSSWYLDELLQIA
Rank (after) [13]: 402
Rank (before) [14]: 1870

Sequence: WPEDYQDIGWFLDNLS
P8_MyD88 Rank (after) [5]: 202
P8_MyD88 Rank (before) [6]: 275

Sequence: SEDTRNNFLYHLYEAL
Rank (after) [13]: 100
Rank (before) [14]: 106
Population [15]: 0.022%

Sequence: EWIRTAASGAERTSA
Rank (after) [9]: 388
Rank (before) [10]: 2178

Sequence: GSFREILLRLLDLSKK
P3_MyD88 Rank (after) [11]: 671
P3_MyD88 Rank (before) [12]: 1858

Sequence: NDSLFWDRLLYSLHVTE
Rank (after) [13]: 187
Rank (before) [14]: 270

Sequence: SSFREGLWRLPELLR
Rank (after) [9]: 101
Rank (before) [10]: 402

Sequence: PSDVRKKTGSLAKAFA
P3_MyD88 Rank (after) [5]: 285
P3_MyD88 Rank (before) [6]: 2735

More lines, now with the values ahead:

P8_MyD88 Rank (after) [7]: 742
P8_MyD88 Rank (before) [8]: 2138
Sequence: YKLALHFRDWLLGAYI

P8_MyD88 Rank (after) [7]: 708
P8_MyD88 Rank (before) [8]: 2455
Sequence: DWVWDYMLTNLEGPAG

Rank (after) [9]: 161
Rank (before) [10]: 676
Sequence: LVAHEITPSLFKAIKE

P3_MyD88 Rank (after) [3]: 491
P3_MyD88 Rank (before) [4]: 1493
Sequence: YAFTGHLPRDLVLRGG

P8_MyD88 Rank (after) [11]: 649
P8_MyD88 Rank (before) [12]: 2649
Sequence: DPQVLEWIYARLFSQM

P8_MyD88 Rank (after) [3]: 559
P8_MyD88 Rank (before) [4]: 2612
Sequence: DPLALEWYYERPFSQM

P8_MyD88 Rank (after) [5]: 214
P8_MyD88 Rank (before) [6]: 303
Sequence: AYSPWALDELVKIIEA

P3_MyD88 Rank (after) [7]: 719
P3_MyD88 Rank (before) [8]: 1830
Sequence: GEDTLYTFTGHLQATL

Rank (after) [1]: 982
Rank (before) [2]: 2496
Sequence: DSQVLDWFYERLVSLL

P8_MyD88 Rank (after) [7]: 723
P8_MyD88 Rank (before) [8]: 1412
Sequence: WALDVLLQFLHARELF

P8_MyD88 Rank (after) [7]: 770
P8_MyD88 Rank (before) [8]: 2294
Sequence: GLSWGPYEWCRGLYDA

Rank (after) [13]: 468
Rank (before) [14]: 3868
Sequence: NDSLFWDRLPYSLNVT

P8_MyD88 Rank (after) [3]: 486
P8_MyD88 Rank (before) [4]: 3337
Sequence: LGYISIVRGYFVGIER

P8_MyD88 Rank (after) [11]: 584
P8_MyD88 Rank (before) [12]: 2674
Sequence: DPQGHAWTYERHLSVF

P8_MyD88 Rank (after) [5]: 215
P8_MyD88 Rank (before) [6]: 1788
Sequence: YASYDDNDYYWVTHVLLRFV

P3_MyD88 Rank (after) [5]: 244
P3_MyD88 Rank (before) [6]: 2040
Sequence: DHHLDLPRGKPIKREILG

Population [15]: 0.00617%
Sequence: DPQDLAWFYERLVSLF

P3_MyD88 Rank (after) [3]: 485
P3_MyD88 Rank (before) [4]: 3267
Sequence: SSYRQGLWRLLELSKK

Rank (after) [9]: 148
Rank (before) [10]: 800
Sequence: KNLFNELVHVWSSKANSLVG

Population [16]: 0.00291%
Sequence: SSLREGLWRLLELSKK

Rank (after) [13]: 139
Rank (before) [14]: 255
Sequence: YASYDDNDYYWVTHVLLRPM

Rank (after) [1]: 994
Rank (before) [2]: 1899
Sequence: YASSSWALLELSKIFEAM

Rank (after) [1]: 991
Rank (before) [2]: 3499
Sequence: PQEREWFYERLVSLIL

Rank (after) [1]: 876
Rank (before) [2]: 1349
Sequence: CARDELLQILHARELF

Rank (after) [9]: 113
Rank (before) [10]: 1321
Sequence: KMQKWKDALYEAPNL

Rank (after) [13]: 127
Rank (before) [14]: 141
Population [15]: 0.0116%
Sequence: ELDFSHFWLFEGHATGEA

Rank (after) [13]: 395
Rank (before) [14]: 1410
Sequence: WALAELLQLLHARELF

Population [16]: 0.0032%
Sequence: SSFREGRWRLLELSKK

Population [16]: 0.00437%
Sequence: SENYATSPWALDELVP

P8_MyD88 Rank (after) [5]: 213
P8_MyD88 Rank (before) [6]: 296
Sequence: FDYELQQSLFHALIMR

P8_MyD88 Rank (after) [11]: 626
P8_MyD88 Rank (before) [12]: 2646
Sequence: DPQVLDWYYERLVRLF

Rank (after) [9]: 165
Rank (before) [10]: 648
Sequence: EWIREQLRPALDELVL

P8_MyD88 Rank (after) [11]: 602
P8_MyD88 Rank (before) [12]: 2975
Sequence: DPQDMEWFYERLVSLIL

Rank (after) [1]: 985
Rank (before) [2]: 2634
Sequence: DPHDLQWLYERLVSLI

Rank (after) [1]: 921
Rank (before) [2]: 1358
Sequence: WFLFTVRSAIYAMSPA

P3_MyD88 Rank (after) [11]: 612
P3_MyD88 Rank (before) [12]: 2460
Sequence: LKCCYPYFWSKLRYAM

Rank (after) [13]: 161
Rank (before) [14]: 179
Population [15]: 0.00771%
Sequence: SSRWALDELVHIMQAL

P8_MyD88 Rank (after) [5]: 253
P8_MyD88 Rank (before) [6]: 434
Sequence: WEDVRINFLSHFLKEL
